MIC data for 6 compounds are collected here from patent US4921850A, “3-propenylcephem derivative” (Eisai Co., Ltd., priority 1986, dated 1990).

SMILES strings stand for the structures. Values after ≈ are worked out from the molar mass of the structure shown.

One assay relates to Pseud. aeruginosa EP-01. The assay can be described thus: Anti-bacterial activity (MIC), agar dilution. The assay is classed as cell-based. As to conditions: Pseudomonas aeruginosa, EP01, 18 h, Pseud. aeruginosa EP-01; agar dilution, about 10^6 CFU/ml, 18 hours, 37° C.; read-out: MIC. The essentials: (§1)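 MIC values (μg/ml) come from agar dilution: strains grown overnight in Mueller-Hinton broth, diluted to roughly 10^6 CFU/ml, spotted on Mueller-Hinton agar containing twofold serial antibiotic dilutions, and read after 18 hours at 37° C.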
On to `NC(=O)Cc1cccc[n+]1C/C=C/C1=C(C(=O)[O-])N2C(=O)[C@@H](NC(=O)/C(=N\OCF)c3nsc(N)n3)[C@H]2SC1` [Example 82], for which the MIC (commonly the lowest concentration that inhibits growth of the organism) is 1.56 µg/mL (≈ 2.71 µM).
The same measure, in the same setting: for `Nc1nc(/C(=N/OCF)C(=O)N[C@@H]2C(=O)N3C(C(=O)[O-])=C(/C=C/C[n+]4ccc(C(=O)N(CCO)CCO)cc4)CS[C@H]23)ns1` [Example 83] the value was 3.13 µg/mL (≈ 4.81 µM).
As for `Nc1nc(/C(=N/OCF)C(=O)N[C@@H]2C(=O)N3C(C(=O)[O-])=C(/C=C/C[n+]4ccc(C(=O)NCCO)cc4)CS[C@H]23)ns1` [Example 84], the MIC stood at 1.56 µg/mL (≈ 2.57 µM).
Still for that read-out and setting: for `NC(=O)Cc1ccc[n+](C/C=C/C2=C(C(=O)[O-])N3C(=O)[C@@H](NC(=O)/C(=N\OCF)c4nsc(N)n4)[C@H]3SC2)c1` [Example 85] the value was 1.56 µg/mL (≈ 2.71 µM).
Turning to `C[N+](C)(C/C=C/C1=C(C(=O)[O-])N2C(=O)[C@@H](NC(=O)/C(=N\OCF)c3nsc(N)n3)[C@H]2SC1)CC(O)CO` (stereo partly drawn) [Example 88], the MIC stood at 0.8 µg/mL (≈ 1.43 µM).
For the compound `C[N+]1(CC=CC2=C(C(=O)[O-])N3C(=O)C(NC(=O)C(=NOCF)c4nsc(N)n4)C3SC2)CC(O)CC1CO` (stereo not drawn) [Example 89-1], the MIC turned out to be 0.8 µg/mL (≈ 1.4 µM).

Another assay relates to Morganella morganii EP-14. Put plainly: Anti-bacterial activity (MIC), agar dilution. The assay is classed as cell-based. As to conditions: Morganella morganii, EP14, 18 h, about 10^6 CFU/ml, 37° C., read-out: MIC. The essentials: as §1
Background: Agar dilution tests growth on a series of plates holding different concentrations.
Take `NC(=O)Cc1cccc[n+]1C/C=C/C1=C(C(=O)[O-])N2C(=O)[C@@H](NC(=O)/C(=N\OCF)c3nsc(N)n3)[C@H]2SC1` [Example 82]: the MIC was not above 0.025 µg/mL.
For `Nc1nc(/C(=N/OCF)C(=O)N[C@@H]2C(=O)N3C(C(=O)[O-])=C(/C=C/C[n+]4ccc(C(=O)N(CCO)CCO)cc4)CS[C@H]23)ns1` [Example 83], the MIC was not above 0.025 µg/mL.
Regarding `Nc1nc(/C(=N/OCF)C(=O)N[C@@H]2C(=O)N3C(C(=O)[O-])=C(/C=C/C[n+]4ccc(C(=O)NCCO)cc4)CS[C@H]23)ns1` [Example 84], the MIC was found to be 0.05 µg/mL (≈ 0.0824 µM).
Still for that read-out and setting: for `NC(=O)Cc1ccc[n+](C/C=C/C2=C(C(=O)[O-])N3C(=O)[C@@H](NC(=O)/C(=N\OCF)c4nsc(N)n4)[C@H]3SC2)c1` [Example 85] the value was not above 0.025 µg/mL.
Take `C[N+](C)(C/C=C/C1=C(C(=O)[O-])N2C(=O)[C@@H](NC(=O)/C(=N\OCF)c3nsc(N)n3)[C@H]2SC1)CC(O)CO` (stereo partly drawn) [Example 88]: the MIC is not above 0.025 µg/mL.
On to `C[N+]1(CC=CC2=C(C(=O)[O-])N3C(=O)C(NC(=O)C(=NOCF)c4nsc(N)n4)C3SC2)CC(O)CC1CO` (stereo not drawn) [Example 89-1], for which the MIC was not above 0.025 µg/mL.

For another assay, the system named is Escher. coli NIHJ. The assay can be described thus: Anti-bacterial activity (MIC), agar dilution. The assay is classed as cell-based. As to conditions: Escherichia coli, 18 h, Escher. coli NIHJ; agar dilution, about 10^6 CFU/ml, 18 hours, 37° C.; read-out: MIC. The essentials: as §1
As for `NC(=O)Cc1cccc[n+]1C/C=C/C1=C(C(=O)[O-])N2C(=O)[C@@H](NC(=O)/C(=N\OCF)c3nsc(N)n3)[C@H]2SC1` [Example 82], the MIC is not above 0.025 µg/mL.
As to `Nc1nc(/C(=N/OCF)C(=O)N[C@@H]2C(=O)N3C(C(=O)[O-])=C(/C=C/C[n+]4ccc(C(=O)N(CCO)CCO)cc4)CS[C@H]23)ns1` [Example 83], the MIC turned out to be 0.05 µg/mL (≈ 0.0768 µM).
Turning to `Nc1nc(/C(=N/OCF)C(=O)N[C@@H]2C(=O)N3C(C(=O)[O-])=C(/C=C/C[n+]4ccc(C(=O)NCCO)cc4)CS[C@H]23)ns1` [Example 84], the MIC is 0.05 µg/mL (≈ 0.0824 µM).
`NC(=O)Cc1ccc[n+](C/C=C/C2=C(C(=O)[O-])N3C(=O)[C@@H](NC(=O)/C(=N\OCF)c4nsc(N)n4)[C@H]3SC2)c1` [Example 85]: the minimal inhibitory concentration (MIC) is not above 0.025 µg/mL.
On the same count and under the same terms, for `C[N+](C)(C/C=C/C1=C(C(=O)[O-])N2C(=O)[C@@H](NC(=O)/C(=N\OCF)c3nsc(N)n3)[C@H]2SC1)CC(O)CO` (stereo partly drawn) [Example 88] the value was not above 0.025 µg/mL; for `C[N+]1(CC=CC2=C(C(=O)[O-])N3C(=O)C(NC(=O)C(=NOCF)c4nsc(N)n4)C3SC2)CC(O)CC1CO` (stereo not drawn) [Example 89-1], not above 0.025 µg/mL.

For a further assay, the system named is Staph. aureus 209-P. Put plainly: Anti-bacterial activity (MIC), agar dilution. The conditions noted are these: Staphylococcus aureus, 209P, 18 h, Staph. aureus 209-P; agar dilution, about 10^6 CFU/ml, 18 hours, 37° C.; read-out: MIC. The assay is classed as cell-based. The essentials:
as §1
Consider `NC(=O)Cc1cccc[n+]1C/C=C/C1=C(C(=O)[O-])N2C(=O)[C@@H](NC(=O)/C(=N\OCF)c3nsc(N)n3)[C@H]2SC1` [Example 82], for which the MIC came to 0.4 µg/mL (≈ 0.694 µM).
Turning to `Nc1nc(/C(=N/OCF)C(=O)N[C@@H]2C(=O)N3C(C(=O)[O-])=C(/C=C/C[n+]4ccc(C(=O)N(CCO)CCO)cc4)CS[C@H]23)ns1` [Example 83], the MIC was 0.8 µg/mL (≈ 1.23 µM).
In the case of `Nc1nc(/C(=N/OCF)C(=O)N[C@@H]2C(=O)N3C(C(=O)[O-])=C(/C=C/C[n+]4ccc(C(=O)NCCO)cc4)CS[C@H]23)ns1` [Example 84], the MIC was determined as 0.4 µg/mL (≈ 0.659 µM).
Take `NC(=O)Cc1ccc[n+](C/C=C/C2=C(C(=O)[O-])N3C(=O)[C@@H](NC(=O)/C(=N\OCF)c4nsc(N)n4)[C@H]3SC2)c1` [Example 85]: the minimum inhibitory concentration (MIC) amounted to 0.2 µg/mL (≈ 0.347 µM).
For the compound `C[N+](C)(C/C=C/C1=C(C(=O)[O-])N2C(=O)[C@@H](NC(=O)/C(=N\OCF)c3nsc(N)n3)[C@H]2SC1)CC(O)CO` (stereo partly drawn) [Example 88], the MIC came out at 0.2 µg/mL (≈ 0.357 µM).
With `C[N+]1(CC=CC2=C(C(=O)[O-])N3C(=O)C(NC(=O)C(=NOCF)c4nsc(N)n4)C3SC2)CC(O)CC1CO` (stereo not drawn) [Example 89-1], the minimal inhibitory concentration (MIC) was found to be 0.2 µg/mL (≈ 0.35 µM).

In a further assay the test system is Kleb. pneumoniae EK-6. The assay can be described thus: Anti-bacterial activity (MIC), agar dilution. The assay is classed as cell-based. As to conditions: Klebsiella pneumoniae, EK6, 18 h, Kleb. pneumoniae EK-6; agar dilution, about 10^6 CFU/ml, 18 hours, 37° C.; read-out: MIC. The essentials:
as §1
As for `NC(=O)Cc1cccc[n+]1C/C=C/C1=C(C(=O)[O-])N2C(=O)[C@@H](NC(=O)/C(=N\OCF)c3nsc(N)n3)[C@H]2SC1` [Example 82], the MIC is not above 0.025 µg/mL.
Turning to `Nc1nc(/C(=N/OCF)C(=O)N[C@@H]2C(=O)N3C(C(=O)[O-])=C(/C=C/C[n+]4ccc(C(=O)N(CCO)CCO)cc4)CS[C@H]23)ns1` [Example 83], the minimum inhibitory concentration (MIC) was not above 0.025 µg/mL.
As for `Nc1nc(/C(=N/OCF)C(=O)N[C@@H]2C(=O)N3C(C(=O)[O-])=C(/C=C/C[n+]4ccc(C(=O)NCCO)cc4)CS[C@H]23)ns1` [Example 84], the MIC was not above 0.025 µg/mL.
As to `NC(=O)Cc1ccc[n+](C/C=C/C2=C(C(=O)[O-])N3C(=O)[C@@H](NC(=O)/C(=N\OCF)c4nsc(N)n4)[C@H]3SC2)c1` [Example 85], the MIC is not above 0.025 µg/mL.
On to `C[N+](C)(C/C=C/C1=C(C(=O)[O-])N2C(=O)[C@@H](NC(=O)/C(=N\OCF)c3nsc(N)n3)[C@H]2SC1)CC(O)CO` (stereo partly drawn) [Example 88], for which the minimal inhibitory concentration (MIC) is not above 0.025 µg/mL.
For `C[N+]1(CC=CC2=C(C(=O)[O-])N3C(=O)C(NC(=O)C(=NOCF)c4nsc(N)n4)C3SC2)CC(O)CC1CO` (stereo not drawn) [Example 89-1], the MIC is not above 0.025 µg/mL.

The next assay deals with Ser. marcescens ES-75. Put plainly: Anti-bacterial activity (MIC), agar dilution. The conditions noted are these: Serratia marcescens, ES75, 18 h, Ser. marcescens ES-75; agar dilution, about 10^6 CFU/ml, 18 hours, 37° C.; read-out: MIC. It is filed as cell-based. The essentials: as §1
With `NC(=O)Cc1cccc[n+]1C/C=C/C1=C(C(=O)[O-])N2C(=O)[C@@H](NC(=O)/C(=N\OCF)c3nsc(N)n3)[C@H]2SC1` [Example 82], the MIC stood at 0.05 µg/mL (≈ 0.0867 µM).
Take `Nc1nc(/C(=N/OCF)C(=O)N[C@@H]2C(=O)N3C(C(=O)[O-])=C(/C=C/C[n+]4ccc(C(=O)N(CCO)CCO)cc4)CS[C@H]23)ns1` [Example 83]: the minimal inhibitory concentration (MIC) amounted to 0.1 µg/mL (≈ 0.154 µM).
On the same count and under the same terms, for `Nc1nc(/C(=N/OCF)C(=O)N[C@@H]2C(=O)N3C(C(=O)[O-])=C(/C=C/C[n+]4ccc(C(=O)NCCO)cc4)CS[C@H]23)ns1` [Example 84] the value was 0.1 µg/mL (≈ 0.165 µM); for `NC(=O)Cc1ccc[n+](C/C=C/C2=C(C(=O)[O-])N3C(=O)[C@@H](NC(=O)/C(=N\OCF)c4nsc(N)n4)[C@H]3SC2)c1` [Example 85], not above 0.025 µg/mL; for `C[N+](C)(C/C=C/C1=C(C(=O)[O-])N2C(=O)[C@@H](NC(=O)/C(=N\OCF)c3nsc(N)n3)[C@H]2SC1)CC(O)CO` (stereo partly drawn) [Example 88], not above 0.025 µg/mL.
Consider `C[N+]1(CC=CC2=C(C(=O)[O-])N3C(=O)C(NC(=O)C(=NOCF)c4nsc(N)n4)C3SC2)CC(O)CC1CO` (stereo not drawn) [Example 89-1], for which the MIC is not above 0.025 µg/mL.
